The values below are quoted from earlier work in patent US10980860B2, “Diagnosis, prevention and treatment of diseases of the joint” (Ascendis Pharma A/S, priority 2012, dated 2021).

The data set concerns osteoarthritis. As to conditions: injection into the joint; Chevalier et al, J. Rheumatol 32 (2005); cited from earlier work.

Regarding “IL-1ra: IL-1ra (Anakinra, Kineret®, Swedish Orphan Biovitrum AB)”, the “Reduction of symptoms of osteoarthritis” value is reported as “not significantly reducing the symptoms of osteoarthritis”.
